For one test, the target named is T1, SETD2(1434-1711) (Homo sapiens, UniProt Q9BYW2).
T1 construct: SETD2 (1434-1711) Assay; catalogue N/A
T1 sequence (Q9BYW2 1434-1711): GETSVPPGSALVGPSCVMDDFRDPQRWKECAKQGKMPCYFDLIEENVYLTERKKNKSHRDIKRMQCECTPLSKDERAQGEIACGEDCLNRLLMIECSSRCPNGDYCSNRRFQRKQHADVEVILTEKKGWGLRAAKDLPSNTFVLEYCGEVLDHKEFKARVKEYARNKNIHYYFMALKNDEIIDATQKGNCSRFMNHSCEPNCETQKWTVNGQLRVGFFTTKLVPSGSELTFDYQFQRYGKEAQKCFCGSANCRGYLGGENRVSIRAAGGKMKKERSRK
In words: SETD2 (1434-1711) assay. The class given is biochemical.

A further test concerns H3K36me3 in A549 cells. In words: In-Cell Western (ICW) assay of SETD2 inhibitors (A549 assay). It is filed as cell-based, human. A digest of the protocol:
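H3K36me3 In-Cell Western: cells exposed to compound for 3 days at 4,000 cells/well, 37° C. DRAQ5 (1:1000) marked cell number, with 700/800-channel Licor read-out.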

Where [1] appears, read: A549 cells, read-out: SETD2 A549.
The mark [2] stands for this setting: Homo sapiens, A549 cells, read-out: SETD2 A549.

Molecules are shown by their SMILES. pIC50: −log10 of the molar value. Like-named read-outs stand apart in the source and are kept apart here.

On to `Cc1ccc(F)c2cc(C(=O)Nc3cccc(N4CCN5C(=O)NCC5C4)c3)[nH]c12` (stereo not shown) [compound 181], for which the values for the pIC50 at SETD2(1434-1711) (read-out: SETD2 (1434-1711)) and with H3K36me3 in A549 cells (setting [1]) were 7.52 and 6.40, respectively.

`Cc1ccc(F)c2cc(C(=O)Nc3cccc(N4CC5CCCN(C)C5C4)c3)[nH]c12` (stereo not shown) [compound 182]: the pIC50 at SETD2(1434-1711) (read-out: SETD2 (1434-1711)) was 7.70; with H3K36me3 in A549 cells (setting [1]), 6.40.

For `Cc1ccc(F)c2cc(C(=O)Nc3cc(F)cc(N4CCCN(C)C(=O)C4)c3)[nH]c12` [compound 183], the pIC50 was 7.05 on SETD2(1434-1711) (read-out: SETD2 (1434-1711)) and 6.40 in the test on H3K36me3 in A549 cells (setting [2]).

With `Cc1ccc(F)c2cc(C(=O)Nc3cccc(N4CC5(CCNCC5)C4)c3)[nH]c12` [compound 184], the figures for the pIC50 on SETD2(1434-1711) (read-out: SETD2 (1434-1711)) and in the test on H3K36me3 in A549 cells (setting [2]) were 8.00 and 6.40, respectively.

With `CC(=O)N1CCN(c2ccc(F)c(NC(=O)c3cc4c(F)ccc(C)c4[nH]3)c2)CC1` [compound 185], the pIC50 was 7.00 at SETD2(1434-1711) (read-out: SETD2 (1434-1711)) and 6.40 in the test with H3K36me3 in A549 cells (setting [2]).

As to `Cc1ccc(F)c2cc(C(=O)Nc3cccc(N4CC[C@H](N(C)C)[C@H](F)C4)c3)[nH]c12` [compound 186], the pIC50 at SETD2(1434-1711) (read-out: SETD2 (1434-1711)) is 7.52; in the test with H3K36me3 in A549 cells (setting [2]), 6.40.

For `Cc1ccc(F)c2cc(C(=O)Nc3cc(Cl)cc(N4CCC(CCCN5CCOCC5)CC4)c3)[nH]c12` [compound 188], the pIC50 was 7.70 at SETD2(1434-1711) (read-out: SETD2 (1434-1711)) and 6.40 in the test on H3K36me3 in A549 cells (setting [2]).

For `Cc1ccc(F)c2cc(C(=O)Nc3cccc(N4CCC5(CCNCC5)C4)c3)[nH]c12` [compound 189], the pIC50 on SETD2(1434-1711) (read-out: SETD2 (1434-1711)) is 8.22; in the test with H3K36me3 in A549 cells (setting [2]) it was 6.40.

With `Cc1ccc(F)c2cc(C(=O)Nc3cccc(N4CCN(C)C4=O)c3)[nH]c12` [compound 191], the pIC50 was 7.52 at SETD2(1434-1711) (read-out: SETD2 (1434-1711)) and 6.40 in the test on H3K36me3 in A549 cells (setting [2]).

`Cc1ccc(F)c2cc(C(=O)Nc3cccc(N4CCC(N)CC4)c3)[nH]c12` [compound 192]: the pIC50 at SETD2(1434-1711) (read-out: SETD2 (1434-1711)) is 7.52; with H3K36me3 in A549 cells (setting [2]), 6.40.

Regarding `CC(=O)N1CCN(c2cccc(NC(=O)c3cc4c(F)ccc(C)c4[nH]3)c2)CC1CC(C)C` (stereo not shown) [compound 193], the values for the pIC50 on SETD2(1434-1711) (read-out: SETD2 (1434-1711)) and in the test with H3K36me3 in A549 cells (setting [2]) were 7.00 and 6.40, respectively.

Take `Cc1ccc(F)c2cc(C(=O)Nc3cccc(C4(O)CCC(N(C)C)CC4)c3)[nH]c12` (stereo not shown) [compound 195]: the results for the pIC50 at SETD2(1434-1711) (read-out: SETD2 (1434-1711)) and in the test on H3K36me3 in A549 cells (setting [2]) were 7.40 and 6.40, respectively.

Regarding `Cc1ccc(F)c2cc(C(=O)Nc3cccc(-c4ccno4)c3)[nH]c12` [compound 196], the pIC50 was 7.00 at SETD2(1434-1711) (read-out: SETD2 (1434-1711)) and 6.40 with H3K36me3 in A549 cells (setting [2]).

As for `Cc1ccc(F)c2cc(C(=O)Nc3cccc(-c4cncn4C)c3)[nH]c12` [compound 197], the pIC50 is 7.00 on SETD2(1434-1711) (read-out: SETD2 (1434-1711)) and 6.40 in the test with H3K36me3 in A549 cells (setting [2]).

As for `COC1CCN(c2cccc(NC(=O)c3cc4c(F)ccc(C)c4[nH]3)c2)CC1` [compound 198], the pIC50 at SETD2(1434-1711) (read-out: SETD2 (1434-1711)) is 7.15; in the test with H3K36me3 in A549 cells (setting [1]), 6.40.

`Cc1ccc(F)c2cc(C(=O)Nc3cccc(N4CCN(CC5CC5)CC4)c3)[nH]c12` [compound 199]: the pIC50 at SETD2(1434-1711) (read-out: SETD2 (1434-1711)) is 7.30; in the test on H3K36me3 in A549 cells (setting [1]), 6.40.

In the case of `Cc1ccc(F)c2cc(C(=O)Nc3cccc(N4CCNC(=O)CC4)c3)[nH]c12` [compound 200], the figures for the pIC50 at SETD2(1434-1711) (read-out: SETD2 (1434-1711)) and with H3K36me3 in A549 cells (setting [1]) were 7.30 and 6.40, respectively.

In the case of `Cc1ccc(F)c2cc(C(=O)Nc3cccc(N4CCN(C(C)C)C(=O)C4)c3)[nH]c12` [compound 201], the pIC50 at SETD2(1434-1711) (read-out: SETD2 (1434-1711)) is 7.05; in the test on H3K36me3 in A549 cells (setting [1]), 6.40.

Take `Cc1ccc(F)c2cc(C(=O)Nc3cccc(N4CC[C@@H](N(C)C)[C@@H](C)C4)c3)[nH]c12` [compound 202]: the results for the pIC50 at SETD2(1434-1711) (read-out: SETD2 (1434-1711)) and in the test with H3K36me3 in A549 cells (setting [1]) were 7.70 and 6.40, respectively.

On to `CCNCC1CN(c2cccc(NC(=O)c3cc4c(F)ccc(C)c4[nH]3)c2)CCO1` (stereo not shown) [compound 203], for which the figures for the pIC50 on SETD2(1434-1711) (read-out: SETD2 (1434-1711)) and in the test on H3K36me3 in A549 cells (setting [1]) were 8.00 and 6.40, respectively.

On to `Cc1ccc(F)c2cc(C(=O)Nc3cccc(N4CCN(CCO)CC4)c3)[nH]c12` [compound 204], for which the pIC50 at SETD2(1434-1711) was 7.10; in the test on H3K36me3 in A549 cells (Homo sapiens, A549, read-out: SETD2 A549) it was 6.40.

With `Cc1ccc(F)c2cc(C(=O)Nc3cccc(N4CCN(C(C)C)C(C)C4)c3)[nH]c12` (stereo not shown) [compound 205], the pIC50 at SETD2(1434-1711) (read-out: SETD2 (1434-1711)) was 7.52; in the test on H3K36me3 in A549 cells (setting [1]), 6.40.

Take `Cc1ccc(F)c2cc(C(=O)Nc3cccc(N4CCC5(CCN(CC(F)F)C5)CC4)c3)[nH]c12` [compound 206]: the figures for the pIC50 on SETD2(1434-1711) (read-out: SETD2 (1434-1711)) and in the test on H3K36me3 in A549 cells (setting [1]) were 7.05 and 6.40, respectively.

Consider `Cc1ccc(F)c2cc(C(=O)Nc3cccc(N4CCN(C5CCOCC5)CC4)c3)[nH]c12` [compound 207], for which the results for the pIC50 on SETD2(1434-1711) (read-out: SETD2 (1434-1711)) and with H3K36me3 in A549 cells (setting [1]) were 7.00 and 6.40, respectively.

`Cc1ccc(F)c2cc(C(=O)Nc3cccc(N4CCN(C(=O)CN(C)C)CC4)c3)[nH]c12` [compound 208]: the pIC50 on SETD2(1434-1711) (read-out: SETD2 (1434-1711)) was 7.22; in the test on H3K36me3 in A549 cells (setting [1]), 6.40.

Regarding `Cc1ccc(F)c2cc(C(=O)Nc3cccc(N4CCOCC4=O)c3)[nH]c12` [compound 209], the pIC50 at SETD2(1434-1711) (read-out: SETD2 (1434-1711)) was 6.70; in the test with H3K36me3 in A549 cells (setting [2]), 6.40.

These data come from US12116358B2, “Substituted indoles and methods of use thereof” (EPIZYME, INC., priority 2018, dated 2024).
